The text below walks through data of the NIST ThermoML archive (doi:10.1016/j.tca.2019.178375).

The conditions of data set [1]: Crystal; DTA.
Data set [2] in a line: Molar enthalpy of transition or fusion. To be noted: Crystal; DSC.

Numbers after ± are expanded uncertainties.

Consider `Cl.c1ccc([C@H]2CN3CCSC3=N2)cc1` [(-)-Levamisole hydrochloride], for which the Normal melting temperature in data set [1] came to 227.00 ± 4 °C. Besides, the “Molar enthalpy of transition or fusion” value in data set [2] is 7.63 ± 0.478 kcal/mol.
